# Measurements taken from patent publication US9321718B2 (CHROMA THERAPEUTICS LTD., priority 2010, dated 2016).
# Target: T1, human recombinant his-tagged HSP90α (Homo sapiens, UniProt P07900)
# T1 construct: purchased Prospec Technogene #HSP90
# Assay: HSP90 enzyme assay (HTRF, competition with biotinylated Geldanamycin)
# Type: binding
# Conditions: IC50 range; read-out: Enzyme Assay
# From the text: An HTRF (homogeneous time resolved fluorescence) assay is used to measure the interaction of the compounds with HSP90. The assay measures binding of biotinylated Geldanamycin (bio-GM; Biomol, #EI-341, lot: A9199a) to human recombinant his-tagged HSP90α (HSP90; Prospec Technogene, #HSP90, lot: 260HSP9001). A signal is generated by fluorescence resonance energy transfer from an Europium-cryptate labeled anti-his antibody (anti-his-K; Cisbio International, #61HISKLA, lot: 33V) via the HSP90-GM-biotin complex to a fluorescence acceptor (allophycocyanin) linked to streptavidin (SA-XL; Cisbio International, #610SAXLB, lot: 089).
# Unlabeled GM or compounds compete with the bio-GM for binding to HSP90 resulting in reduced fluorescence energy transfer/assay signal.
# A preformed (1 hour incubation) complex of HSP90 with the anti-his-K is added to the compound solution in a 384 well microplate (Corning, #3710) and incubated for 15 minutes. A preformed (1 hour incubation) complex of bio-GM with the SA-XL is added to the wells and incubated for 20 hours. All incubations are performed at room temperature. The final assay volume is 50 μl/well. The final concentrations in the assay are: 50 mM Hepes pH 7.3, 50 mM NaCl, 100 mM KF, 1 mM EDTA, 1 mM DTT, 0.1% Triton-X-100, […] HSP90, 40 nM SA-XL, 40 nM bio-GM. Test compounds are dissolved in DMSO, prediluted in assay buffer and tested at a final concentration between 5000 nM and 0.3 nM. The resulting DMSO concentration is 0.5% and included in all controls. High controls are without test compounds, low controls without test compounds, without HSP90 and without bio-GM. As a reference inhibitor unlabeled GM is used in the same concentrations as the test compounds.
# Inhibition is calculated compared to the assay controls using an Excel spreadsheet (Microsoft). IC50 values are calculated by non-linear least squares fitting to the standard dose-response model using GraphPad Prism (GraphPad Software Inc).
row,IC50 [nM],Molecule
1,< 100,CC(C)c1cc(C(=O)N2CCC(CN[C@@H](COC(C)(C)C)C(=O)O)CC2)c(O)cc1O [Example 119]
2,< 100,"CC(C)c1cc(C(=O)N2CCC(CCN[C@H](C(=O)O)c3ccccc3)CC2)c(O)cc1O [Example 124, (2S)-{[2-(1-{[2,4-dihydroxy-5-(propan-2-yl)phenyl]carbonyl}piperidin-4-yl)ethyl]amino}(phenyl)ethanoic acid]"
3,< 100,"CC(C)C[C@H](NC1CCN(C(=O)c2cc(C(C)C)c(O)cc2O)C1)C(=O)O (stereo partly drawn) [Example 95, N-(1-{[2,4-dihydroxy-5-(propan-2-yl)phenyl]carbonyl}pyrrolidin-3-yl)-L-leucine]"
4,< 100,"CC(C)c1cc(C(=O)N2Cc3ccc(CCCNC4(C(=O)O)CCCC4)cc3C2)c(O)cc1O [Example 90, 1-{[3-(2-{[2,4-dihydroxy-5-(propan-2-yl)phenyl]carbonyl}-2,3-dihydro-1H-isoindol-5-yl)propyl]amino}cyclopentanecarboxylic acid]"
5,< 100,"CC(C)c1cc(C(=O)N2CCC(CCN[C@@H](Cc3ccccc3)C(=O)OC(C)(C)C)CC2)c(O)cc1O [Example 41, tert-butyl N-[2-(1-{[2,4-dihydroxy-5-(propan-2-yl)phenyl]carbonyl}piperidin-4-yl)ethyl]-L-phenylalaninate]"
6,< 100,"CC(C)c1cc(C(=O)N(C)Cc2cccc(CNC3(C(=O)O)CCCC3)c2)c(O)cc1O [Example 88, 1-[(3-{[{[2,4-dihydroxy-5-(propan-2-yl)phenyl]carbonyl}(methyl)amino]methyl}benzyl)amino]cyclopentanecarboxylic acid]"
7,< 100,"CC(C)C[C@@H](NCC1CCN(C(=O)c2cc(C(C)C)c(O)cc2O)CC1)C(=O)O [Example 108, N-[(1-{[2,4-dihydroxy-5-(propan-2-yl)phenyl]carbonyl}piperidin-4-yl)methyl]-D-leucine]"
8,< 100,"CC(C)c1cc(C(=O)N2CCC(CCN[C@H](C(=O)O)C3CCCCC3)CC2)c(O)cc1O [Example 123, (2S)-cyclohexyl{[2-(1-{[2,4-dihydroxy-5-(propan-2-yl)phenyl]carbonyl}piperidin-4-yl)ethyl]amino}ethanoic acid]"
9,< 100,"CC(C)c1cc(C(=O)N2CCC(CCN[C@@H](COC(C)(C)C)C(=O)O)CC2)c(O)cc1O [Example 115, O-tert-butyl-N-[2-(1-{[2,4-dihydroxy-5-(propan-2-yl)phenyl]carbonyl}piperidin-4-yl)ethyl]-L-serine]"
10,< 100,"CC(C)C[C@H](NCCCc1ccc2c(c1)CN(C(=O)c1cc(C(C)C)c(O)cc1O)C2)C(=O)O [Example 80, N-[3-(2-{[2,4-dihydroxy-5-(propan-2-yl)phenyl]carbonyl}-2,3-dihydro-1H-isoindol-5-yl)propyl]-L-leucine]"
11,< 100,"CC(C)c1cc(C(=O)N(C)Cc2ccc(CNC(C)(C)C(=O)O)cc2)c(O)cc1O [Example 86, N-(4-{[{[2,4-dihydroxy-5-(propan-2-yl)phenyl]carbonyl}(methyl)amino]methyl}benzyl)-2-methylalanine]"
12,< 100,"CC(C)c1cc(C(=O)N2CCC(CN[C@@H](Cc3ccccc3)C(=O)O)CC2)c(O)cc1O [Example 107, N-[(1-{[2,4-dihydroxy-5-(propan-2-yl)phenyl]carbonyl}piperidin-4-yl)methyl]-L-phenylalanine]"
13,< 100,"CC(C)c1cc(C(=O)N2CCC(CCN[C@@H](C)C(=O)O)CC2)c(O)cc1O [Example 92, N-[2-(1-{[2,4-dihydroxy-5-(propan-2-yl)phenyl]carbonyl}piperidin-4-yl)ethyl]-L-alanine]"
14,100 to 1000,"CC(C)C[C@H](NC1CCCN(C(=O)c2cc(C(C)C)c(O)cc2O)C1)C(=O)O (stereo partly drawn) [Example 102, N-(1-{[2,4-dihydroxy-5-(propan-2-yl)phenyl]carbonyl}piperidin-3-yl)-L-leucine]"
15,< 100,"CC(C)c1cc(C(=O)N2CCC(N[C@H](C(=O)O)C(C)C)CC2)c(O)cc1O [Example 98, N-(1-{[2,4-dihydroxy-5-(propan-2-yl)phenyl]carbonyl}piperidin-4-yl)-L-valine]"
16,< 100,"CC(C)c1cc(C(=O)N2CCC(NC(C)(C)C(=O)O)CC2)c(O)cc1O [Example 97, N-(1-{[2,4-dihydroxy-5-(propan-2-yl)phenyl]carbonyl}piperidin-4-yl)-2-methylalanine]"
17,< 100,"CC(C)c1cc(C(=O)N2CCC(N[C@@H](CO)C(=O)O)CC2)c(O)cc1O [Example 125, N-(1-{[2,4-dihydroxy-5-(propan-2-yl)phenyl]carbonyl}piperidin-4-yl)-L-serine]"
18,100 to 1000,"CC(C)C[C@H](NC[C@@H]1CCCN1C(=O)c1cc(C(C)C)c(O)cc1O)C(=O)O [Example 94, N-{[(2S)-1-{[2,4-dihydroxy-5-(propan-2-yl)phenyl]carbonyl}pyrrolidin-2-yl]methyl}-L-leucine]"

# More lines, now with the values behind:
row,Molecule,IC50 [nM]
1,"CC(C)c1cc(C(=O)N2CCC(CN[C@H](C(=O)O)c3ccccc3)CC2)c(O)cc1O [Example 120, (2S)-{[(1-{[2,4-dihydroxy-5-(propan-2-yl)phenyl]carbonyl}piperidin-4-yl)methyl]amino}(phenyl)ethanoic acid]",< 100
2,"CC(C)c1cc(C(=O)N2CCC(N[C@@H](COC(C)(C)C)C(=O)O)CC2)c(O)cc1O [Example 122, O-tert-butyl-N-(1-{[2,4-dihydroxy-5-(propan-2-yl)phenyl]carbonyl}piperidin-4-yl)-L-serine]",< 100
3,"CC(C)c1cc(C(=O)N2CCC(N[C@@H](Cc3ccccc3)C(=O)O)CC2)c(O)cc1O [Example 101, N-(1-{[2,4-dihydroxy-5-(propan-2-yl)phenyl]carbonyl}piperidin-4-yl)-L-phenylalanine]",< 100
4,"CC(C)c1cc(C(=O)N2Cc3ccc(CN[C@@H](C)C(=O)O)cc3C2)c(O)cc1O [Example 82, N-[(2-{[2,4-dihydroxy-5-(propan-2-yl)phenyl]carbonyl}-2,3-dihydro-4H-isoindol-5-yl)methyl]-L-alanine]",< 100
5,"CC(C)c1cc(C(=O)N(C)Cc2ccc(CCNC(C)(C)C(=O)O)cc2)c(O)cc1O [Example 91, N-[2-(4-{[{[2,4-dihydroxy-5-(propan-2-yl)phenyl]carbonyl}(methyl)amino]methyl}phenyl)ethyl]-2-methylalanine]",< 100
6,"CC(C)c1cc(C(=O)N2CCC(CCN[C@H](C(=O)OC(C)(C)C)C3CCCCC3)CC2)c(O)cc1O [Example 49, tert-butyl (2S)-cyclohexyl{[2-(1-{[2,4-dihydroxy-5-(propan-2-yl)phenyl]carbonyl}piperidin-4-yl)ethyl]amino}ethanoate]",< 100
7,"CC(C)C[C@@H](NC1CCN(C(=O)c2cc(C(C)C)c(O)cc2O)CC1)C(=O)O [Example 109, N-(1-{[2,4-dihydroxy-5-(propan-2-yl)phenyl]carbonyl}piperidin-4-yl)-D-leucine]",> 1000
8,"CC(C)c1cc(C(=O)N2CCC(CN[C@H](C(=O)OC(C)(C)C)C3CCCCC3)CC2)c(O)cc1O [Example 31, tert-butyl (2S)-cyclohexyl{[(1-{[2,4-dihydroxy-5-(propan-2-yl)phenyl]carbonyl}piperidin-4-yl)methyl]amino}ethanoate]",100 to 1000
9,"CC(C)c1cc(C(=O)N2CCC(CN[C@H](C(=O)O)C(C)C)CC2)c(O)cc1O [Example 112, N-[(1-{[2,4-dihydroxy-5-(propan-2-yl)phenyl]carbonyl}piperidin-4-yl)methyl]-L-valine]",< 100
10,"CC(C)c1cc(C(=O)N2CCC(CCN[C@H](C(=O)OC(C)(C)C)c3ccccc3)CC2)c(O)cc1O [Example 50, tert-butyl (2S)-{[2-(1-{[2,4-dihydroxy-5-(propan-2-yl)phenyl]carbonyl}piperidin-4-yl)ethyl]amino}(phenyl)ethanoate]",< 100
11,"CC(C)C[C@H](NCC1CCN(C(=O)c2cc(C(C)C)c(O)cc2O)CC1)C(=O)O [Example 103, N-[(1-{[2,4-dihydroxy-5-(propan-2-yl)phenyl]carbonyl}piperidin-4-yl)methyl]-L-leucine]",< 100
12,"CCOC(=O)[C@H](C)NCc1ccc2c(c1)CN(C(=O)c1cc(C(C)C)c(O)cc1O)C2 [Example 57, ethyl N-[(2-{[2,4-dihydroxy-5-(propan-2-yl)phenyl]carbonyl}-2,3-dihydro-1H-isoindol-5-yl)methyl]-L-alaninate]",< 100
13,"N-{3-[(1-{[2,4-dihydroxy-5-(propan-2-yl)phenyl]carbonyl}piperidin-4-yl)amino]propyl}-L-leucine [Example 127]",< 100
14,"CC(C)c1cc(C(=O)N(C)Cc2cccc(CNC(C)(C)C(=O)O)c2)c(O)cc1O [Example 87, N-(3-{[{[2,4-dihydroxy-5-(propan-2-yl)phenyl]carbonyl}(methyl)amino]methyl}benzyl)-2-methylalanine]",< 100

# Same assay, conditions: in words, relative to non-ester parent CHR-7310
row,IC50 in the Hsp90 binding assay compared with CHR-7310,Molecule
1,similar,"CC(C)c1cc(C(=O)N2CCC(N[C@@H](COC(C)(C)C)C(=O)O)CC2)c(O)cc1O [Example 122, O-tert-butyl-N-(1-{[2,4-dihydroxy-5-(propan-2-yl)phenyl]carbonyl}piperidin-4-yl)-L-serine]"
